# Tests used:
# Spodoptera litura [1] = test: Insecticidal activity against last-instar Spodoptera litura larvae assessed as larval pupal intermediate injected at 2 ug/larvae (reference value: […]); assay type: functional
# Mamestra brassicae [2] = test: Insecticidal activity against last-instar Mamestra brassicae larvae assessed as partial pupation injected at 1 ug/larvae (reference value: 10%); assay type: functional
# Trehalase (Bombyx mori) [3] = target: T1, Trehalase (Bombyx mori) (UniProt P32358); test: Inhibition of Bombyx mori trehalase activity in total ovaries at 10 ug/pupa; conditions: Female gonad
# T1 sequence (whole entry): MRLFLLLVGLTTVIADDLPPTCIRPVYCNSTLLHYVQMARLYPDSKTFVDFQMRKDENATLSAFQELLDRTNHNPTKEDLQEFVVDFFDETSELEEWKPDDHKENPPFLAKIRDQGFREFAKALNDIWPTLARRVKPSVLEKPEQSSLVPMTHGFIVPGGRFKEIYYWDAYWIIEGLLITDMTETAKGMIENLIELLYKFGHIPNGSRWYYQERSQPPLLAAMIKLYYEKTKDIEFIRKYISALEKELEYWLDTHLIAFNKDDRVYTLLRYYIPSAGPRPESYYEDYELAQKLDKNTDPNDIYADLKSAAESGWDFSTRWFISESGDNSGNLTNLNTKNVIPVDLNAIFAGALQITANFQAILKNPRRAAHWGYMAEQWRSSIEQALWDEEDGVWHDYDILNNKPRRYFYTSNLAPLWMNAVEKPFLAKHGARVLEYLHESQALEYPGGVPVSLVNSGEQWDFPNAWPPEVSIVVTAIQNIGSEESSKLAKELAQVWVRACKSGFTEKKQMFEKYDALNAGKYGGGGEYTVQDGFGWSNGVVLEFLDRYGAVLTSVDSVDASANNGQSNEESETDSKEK
# Spodoptera litura [4] = test: Insecticidal activity against last-instar Spodoptera litura larvae assessed as normal pupae injected at 0.4 ug/larvae (reference value: 100%); assay type: functional
# Trehalase (Bombyx mori) [5] = target: T1, Trehalase (Bombyx mori); test: Inhibition of Bombyx mori trehalase activity in arborescent region of colleterial glands at 1 ug/pupa
# Spodoptera litura [6] = test: Insecticidal activity against last-instar Spodoptera litura larvae assessed as normal pupae injected at 50 ug/larvae (reference value: 100%); assay type: functional
# Chitinase A1 = target: T2, Chitinase A1 (Thanatephorus cucumeris (strain AG1-IB / isolate 7/3/14) (Lettucebottom rot fungus) (Rhizoctonia solani), UniProt M5BZV0); test: Inhibition of Rhizoctonia solani chitinase; conditions: read-out: I50
# T2 sequence (M5BZV0 whole entry): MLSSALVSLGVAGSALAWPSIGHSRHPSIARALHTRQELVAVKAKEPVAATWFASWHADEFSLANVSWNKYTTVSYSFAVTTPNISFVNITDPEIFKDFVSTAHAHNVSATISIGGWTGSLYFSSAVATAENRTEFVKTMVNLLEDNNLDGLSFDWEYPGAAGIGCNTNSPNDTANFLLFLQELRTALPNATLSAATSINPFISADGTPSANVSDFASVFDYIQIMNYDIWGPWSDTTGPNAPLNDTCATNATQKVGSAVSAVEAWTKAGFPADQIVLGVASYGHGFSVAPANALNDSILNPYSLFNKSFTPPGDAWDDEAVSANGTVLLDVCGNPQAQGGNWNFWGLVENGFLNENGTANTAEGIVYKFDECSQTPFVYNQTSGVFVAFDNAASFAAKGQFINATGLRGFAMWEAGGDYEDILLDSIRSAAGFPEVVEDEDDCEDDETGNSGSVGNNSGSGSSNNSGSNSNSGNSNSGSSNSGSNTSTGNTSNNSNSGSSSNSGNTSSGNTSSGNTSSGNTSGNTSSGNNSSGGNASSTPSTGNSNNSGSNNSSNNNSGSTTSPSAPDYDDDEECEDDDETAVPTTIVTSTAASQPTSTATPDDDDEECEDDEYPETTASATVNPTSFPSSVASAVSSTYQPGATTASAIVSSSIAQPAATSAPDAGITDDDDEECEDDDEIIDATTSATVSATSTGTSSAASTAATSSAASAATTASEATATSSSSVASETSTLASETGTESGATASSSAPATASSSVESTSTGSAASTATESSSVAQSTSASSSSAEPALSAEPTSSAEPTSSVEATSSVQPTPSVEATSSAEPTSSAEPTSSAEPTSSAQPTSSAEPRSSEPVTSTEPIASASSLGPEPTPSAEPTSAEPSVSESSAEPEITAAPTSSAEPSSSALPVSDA
# Vacuolar acid trehalase = target: T3, Vacuolar acid trehalase (Saccharomyces cerevisiae (strain ATCC 204508 / S288c) (Baker's yeast), UniProt P48016); test: Inhibition of Saccharomyces cerevisiae trehalase; conditions: read-out: I50
# T3 sequence (P48016 whole entry): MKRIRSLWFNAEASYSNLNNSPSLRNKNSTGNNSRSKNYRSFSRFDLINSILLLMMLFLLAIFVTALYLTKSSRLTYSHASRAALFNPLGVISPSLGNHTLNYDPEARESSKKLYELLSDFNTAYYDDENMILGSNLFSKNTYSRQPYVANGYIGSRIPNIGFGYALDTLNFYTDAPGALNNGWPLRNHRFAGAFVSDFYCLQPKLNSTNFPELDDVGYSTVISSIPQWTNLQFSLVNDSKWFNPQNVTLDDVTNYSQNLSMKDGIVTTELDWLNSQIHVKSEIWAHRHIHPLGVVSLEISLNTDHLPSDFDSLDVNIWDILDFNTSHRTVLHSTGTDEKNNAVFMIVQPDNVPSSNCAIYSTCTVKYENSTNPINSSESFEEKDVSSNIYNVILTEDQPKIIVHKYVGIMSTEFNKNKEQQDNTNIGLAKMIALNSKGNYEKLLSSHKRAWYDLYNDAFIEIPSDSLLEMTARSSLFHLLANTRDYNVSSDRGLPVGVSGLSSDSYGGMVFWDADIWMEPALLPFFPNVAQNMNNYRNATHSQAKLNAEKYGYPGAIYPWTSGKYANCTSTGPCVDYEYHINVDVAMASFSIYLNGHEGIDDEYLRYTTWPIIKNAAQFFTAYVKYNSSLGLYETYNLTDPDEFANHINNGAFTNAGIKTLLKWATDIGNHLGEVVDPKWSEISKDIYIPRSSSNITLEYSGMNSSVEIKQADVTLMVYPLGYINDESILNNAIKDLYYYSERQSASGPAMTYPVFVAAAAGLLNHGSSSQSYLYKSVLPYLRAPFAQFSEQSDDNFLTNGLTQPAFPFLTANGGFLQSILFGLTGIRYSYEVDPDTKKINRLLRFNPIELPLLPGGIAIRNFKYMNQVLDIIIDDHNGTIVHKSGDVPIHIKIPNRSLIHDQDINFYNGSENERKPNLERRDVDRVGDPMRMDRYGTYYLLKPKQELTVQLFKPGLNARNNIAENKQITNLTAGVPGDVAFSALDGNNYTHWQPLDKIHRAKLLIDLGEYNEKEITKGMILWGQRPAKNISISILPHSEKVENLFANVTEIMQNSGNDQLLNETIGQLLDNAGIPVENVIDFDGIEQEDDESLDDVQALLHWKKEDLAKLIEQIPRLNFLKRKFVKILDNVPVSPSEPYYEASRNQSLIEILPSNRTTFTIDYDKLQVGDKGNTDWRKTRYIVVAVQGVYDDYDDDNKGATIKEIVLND
# Mamestra brassicae [7] = test: Insecticidal activity against last-instar Mamestra brassicae larvae assessed as wing pad separation injected at 1 ug/larvae (reference value: 0%); assay type: functional
smiles,measurement,setting,value
OCC1=C[C@H](N[C@H]2C[C@H](CO)[C@@H](O)[C@H](O)[C@H]2O)[C@H](O)[C@@H](O)[C@@H]1O [VALIDOXYLAMINE A],Activity,Spodoptera litura [1],15%
same,Activity,Mamestra brassicae [2],27%
same,inhibition,Trehalase (Bombyx mori) [3],78%
same,Activity,Spodoptera litura [4],85%
same,inhibition,Trehalase (Bombyx mori) [5],78%
same,Activity,Spodoptera litura [6],0%
same,IC50,Chitinase A1,> 1000 µM
same,IC50,Vacuolar acid trehalase,0.003 µM
same,Activity,Mamestra brassicae [7],20%

# Source: ChEMBL document CHEMBL3044761, “Lethal Activity of a Trehalase Inhibitor, Validoxylamine A, against Mamestra brassicae and Spodoptera litura” (J Pestic Sci, 1994)
